Results from patent US20100305120A1, “COMPOUNDS FOR TREATING MUSCULAR DYSTROPHY” (BIOMARIN IGA LIMITED, priority 2008, published 2010).

Test system: Utrophin A promoter linked to a luciferase reporter gene
Assay: Luciferase reporter assay (murine H2K cells), H2K/mdx/Utro A reporter cell line
Type: cell-based
Conditions: 48 h, mdx mouse H2K Utrophin A reporter cells, read-out: Activity (luciferase level relative to control); for activity at 10 µM: test compound concentration 10 μM
Procedure, shortened: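 Immortalized mdx mouse H2K myoblasts stably carrying ~5 kb utrophin A promoter–luciferase construct, kept at 33 °C, 10% CO2. Compound added 24 h after plating, typically at 10 μM final, for 48 h; luciferase measured by cell lysis and luminescence.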

Row | Compound | activity at 10 µM [%] | other results
1 | CS(=O)(=O)c1ccc(Cn2nc(C(=O)Nc3cnc4ccccc4c3)c3ccccc32)cc1 [Compound 103, 1-(4-(methylsulfonyl)benzyl)-N-(quinolin-3-yl)-1H-indazole-3-carboxamide] | – | activity at 3 µM (test compound concentration 3 μM): < 200%
2 | Cc1ccc(NC(=O)c2nn(Cc3ccc(S(C)(=O)=O)cc3)c3ccccc23)cc1C [Compound 104, N-(3,4-dimethylphenyl)-1-(4-(methylsulfonyl)benzyl)-1H-indazole-3-carboxamide] | 301 to 400 | –
3 | CS(=O)(=O)c1ccc(Cn2nc(C(=O)Nc3ccc4c(c3)OCCO4)c3ccccc32)cc1 [Compound 105, N-(2,3-dihydrobenzo[b][1,4]dioxin-6-yl)-1-(4-(methylsulfonyl)benzyl)-1H-indazole-3-carboxamide] | > 401 | –
4 | O=C(Nc1ccc2c(c1)OCO2)c1nn(Cc2cccnc2)c2ccccc12 [Compound 106, N-(benzo[d][1,3]dioxol-5-yl)-1-(pyridin-3-ylmethyl)-1H-indazole-3-carboxamide] | 201 to 300 | –
5 | CC(=O)Nc1ccc(NC(=O)c2nn(Cc3ccc(S(C)(=O)=O)cc3)c3ccccc23)cc1 [Compound 107, N-(4-acetamidophenyl)-1-(4-(methylsulfonyl)benzyl)-1H-indazole-3-carboxamide] | 201 to 300 | –
6 | Cc1ccc(NC(=O)c2nn(Cc3ccc(S(C)(=O)=O)cc3)c3ccccc23)cc1 [Compound 108, 1-(4-(methylsulfonyl)benzyl)-N-p-tolyl-1H-indazole-3-carboxamide] | > 401 | –
7 | CC(=O)Nc1ccc(NC(=O)c2nn(Cc3ccc(C(F)(F)F)cc3)c3ccccc23)cc1 [Compound 109, N-(4-acetamidophenyl)-1-(4-(trifluoromethyl)benzyl)-1H-indazole-3-carboxamide] | < 200 | –
8 | CS(=O)(=O)c1ccc(Cn2nc(C(=O)Nc3ccc4nccnc4c3)c3ccccc32)cc1 [Compound 110, 1-(4-(methylsulfonyl)benzyl)-N-(quinoxalin-6-yl)-1H-indazole-3-carboxamide] | 301 to 400 | –
9 | CS(=O)(=O)c1ccc(Cn2nc(C(=O)Nc3ccc(Cl)c(Cl)c3)c3ccccc32)cc1 [Compound 111, N-(3,4-dichlorophenyl)-1-(4-(methylsulfonyl)benzyl)-1H-indazole-3-carboxamide] | < 200 | –
10 | CCCc1ccc(NC(=O)c2nn(Cc3ccc(S(C)(=O)=O)cc3)c3ccccc23)cc1 [Compound 112, 1-(4-(methylsulfonyl)benzyl)-N-(4-propylphenyl)-1H-indazole-3-carboxamide] | 201 to 300 | –
11 | CS(=O)(=O)c1ccc(Cn2nc(C(=O)Nc3ccc4c(c3)CS(=O)(=O)C4)c3ccccc32)cc1 [Compound 113, N-(1,3-dihydrobenzo[c]thiophen-2,2-dioxy-5-yl)-1-(4-(methylsulfonyl)benzyl)-1H-indazole-3-carboxamide] | < 200 | –
12 | O=C(Nc1ccc2c(c1)OCO2)c1nn(Cc2ccc(C(F)(F)F)cc2)c2ccccc12 [Compound 115, N-(benzo[d][1,3]dioxol-5-yl)-1-(4-(trifluoromethyl)benzyl)-1H-indazole-3-carboxamide] | < 200 | –
13 | CS(=O)(=O)c1ccc(Cn2nc(C(=O)Nc3ccc4ccccc4c3)c3ccccc32)cc1 [Compound 116, 1-(4-(methylsulfonyl)benzyl)-N-(naphthalen-2-yl)-1H-indazole-3-carboxamide] | 201 to 300 | –
14 | CN(C)C(=O)c1ccc(Cn2nc(C(=O)Nc3ccc4c(c3)OCO4)c3ccccc32)cc1 [Compound 117, N-(benzo[d][1,3]dioxol-5-yl)-1-(4-(dimethylcarbamoyl)benzyl)-1H-indazole-3-carboxamide] | 201 to 300 | –
15 | CS(=O)(=O)c1ccc(Cn2nc(NC(=O)Nc3ccc(Cl)cc3)c3ccccc32)cc1 [Compound 118, 1-(4-chlorophenyl)-3-(1-(4-(methylsulfonyl)benzyl)-1H-indazol-3-yl)urea] | – | activity at 0.3 µM (test compound concentration 0.3 μM): < 200%
16 | CC(C)c1ccc(Cn2nc(C(=O)Nc3ccc4c(c3)OCO4)c3ccccc32)cc1 [Compound 119, N-(benzo[d][1,3]dioxol-5-yl)-1-(4-isopropylbenzyl)-1H-indazole-3-carboxamide] | < 200 | –
17 | CS(=O)(=O)c1ccc(Cn2nc(C(=O)Nc3ccc4occc4c3)c3ccccc32)cc1 [Compound 120, N-(benzofuran-5-yl)-1-(4-(methylsulfonyl)benzyl)-1H-indazole-3-carboxamide] | 301 to 400 | –
18 | CS(=O)(=O)c1ccc(Cn2nc(C(=O)Nc3ccc4c(c3)CCCC4)c3ccccc32)cc1 [Compound 121, 1-(4-(methylsulfonyl)benzyl)-N-(5,6,7,8-tetrahydronaphthalen-2-yl)-1H-indazole-3-carboxamide] | 201 to 300 | –
19 | CS(=O)(=O)c1ccc(Cn2nc(C(=O)Nc3ccc(C4CCCCC4)cc3)c3ccccc32)cc1 [Compound 122, N-(4-cyclohexylphenyl)-1-(4-(methylsulfonyl)benzyl)-1H-indazole-3-carboxamide] | 201 to 300 | –
20 | O=C(Nc1ccc2c(c1)OCO2)c1nn(Cc2ccc3c(c2)OCO3)c2ccccc12 [Compound 123, N-(benzo[d][1,3]dioxol-5-yl)-1-(benzo[d][1,3]dioxol-5-ylmethyl)-1H-indazole-3-carboxamide] | 201 to 300 | –
21 | CC(C)(C)c1ccc(C(=O)n2nc(C(=O)Nc3ccc4c(c3)OCO4)c3ccccc32)cc1 [Compound 124, N-(benzo[d][1,3]dioxol-5-yl)-1-(4-tert-butylbenzoyl)-1H-indazole-3-carboxamide] | 301 to 400 | –
22 | Cc1cnc(NC(=O)c2nn(Cc3ccc(S(C)(=O)=O)cc3)c3ccccc23)s1 [Compound 125, 1-(4-(methylsulfonyl)benzyl)-N-(5-methylthiazol-2-yl)-1H-indazole-3-carboxamide] | < 200 | –
23 | Cc1csc(NC(=O)c2nn(Cc3ccc(S(C)(=O)=O)cc3)c3ccccc23)n1 [Compound 126, 1-(4-(methylsulfonyl)benzyl)-N-(4-methylthiazol-2-yl)-1H-indazole-3-carboxamide] | < 200 | –
24 | CS(=O)(=O)c1cccc(Cn2nc(C(=O)Nc3ccc4c(c3)OCO4)c3ccccc32)c1 [Compound 127, N-(benzo[d][1,3]dioxol-5-yl)-1-(3-(methylsulfonyl)benzyl)-1H-indazole-3-carboxamide] | < 200 | –
25 | CN(C)S(=O)(=O)c1ccc(Cn2nc(C(=O)Nc3ccc4c(c3)OCO4)c3ccccc32)cc1 [Compound 128, N-(benzo[d][1,3]dioxol-5-yl)-1-(4-(N,N-dimethylsulfamoyl)benzyl)-1H-indazole-3-carboxamide] | 201 to 300 | –
26 | O=C(Nc1ccc2c(c1)OCO2)c1nn(Cc2ccsc2)c2ccccc12 [Compound 129, N-(benzo[d][1,3]dioxol-5-yl)-1-(thiophen-3-ylmethyl)-1H-indazole-3-carboxamide] | < 200 | –
27 | CS(=O)(=O)c1ccc(Cn2nc(C(=O)Nc3ccc4c(c3)CCC4)c3ccccc32)cc1 [Compound 130, N-(2,3-dihydro-1H-inden-5-yl)-1-(4-(methylsulfonyl)benzyl)-1H-indazole-3-carboxamide] | 201 to 300 | –
28 | Cc1ccc(Cn2nc(C(=O)Nc3ccc4c(c3)OCO4)c3ccccc32)cc1 [Compound 131, N-(benzo[d][1,3]dioxol-5-yl)-1-(4-methylbenzyl)-1H-indazole-3-carboxamide] | < 200 | –
